Measured values as given in patent US11364229B2, “Triple combination formulations for antiemetic therapy” (LEIUTIS PHARMACEUTICALS PVT, LTD, priority 2017, dated 2022).

Assay: Effect of Meglumine on solubility (stressed at 60° C. for 24 hours, filtered)
Format: physicochemical
Settings: Arginine+Aspartic acid buffer system
Method: The samples were stressed at 60° C. for 24 hours and were analyzed after filtration.

CNC[C@H](O)[C@@H](O)[C@H](O)[C@H](O)CO [meglumine]
effect on solubility of Aprepitant in the buffer system: improves the solubility of Aprepitant
